In ChEMBL document CHEMBL4190314, “Quinoline hybrids and their antiplasmodial and antimalarial activities” (Eur J Med Chem, 2017):

How the values were obtained:
Format in all cases: functional, organism-based
Plasmodium falciparum [1] = assay: Antimalarial activity against chloroquine-resistant Plasmodium falciparum FcB1 infected in human red blood cells after 48 hrs by [3H]-hypoxanthine incorporation assay
Plasmodium falciparum [2] = assay: Antimalarial activity against chloroquine-resistant Plasmodium falciparum FcM29 infected in human red blood cells after 48 hrs by [3H]-hypoxanthine incorporation assay
Plasmodium falciparum [3] = assay: Antimalarial activity against chloroquine-sensitive Plasmodium falciparum Nigerian infected in human red blood cells after 48 hrs by [3H]-hypoxanthine incorporation assay
Plasmodium falciparum [4] = assay: Antimalarial activity against chloroquine-resistant Plasmodium falciparum 7G8 infected in human type A+ erythrocytes after 48 hrs by [3H]-hypoxanthine incorporation assay
Plasmodium falciparum [5] = assay: Antimalarial activity against chloroquine-resistant Plasmodium falciparum W2 infected in human type A+ erythrocytes after 48 hrs by [3H]-hypoxanthine incorporation assay
Plasmodium falciparum [6] = assay: Antimalarial activity against chloroquine-resistant Plasmodium falciparum INDO infected in human type A+ erythrocytes after 48 hrs by [3H]-hypoxanthine incorporation assay
Plasmodium falciparum [7] = assay: Antimalarial activity against chloroquine-resistant Plasmodium falciparum ItG2F6 infected in human type A+ erythrocytes after 48 hrs by [3H]-hypoxanthine incorporation assay
Plasmodium falciparum [8] = assay: Antimalarial activity against chloroquine-sensitive Plasmodium falciparum NF54 infected in human type A+ erythrocytes after 48 hrs by [3H]-hypoxanthine incorporation assay
Plasmodium falciparum [9] = assay: Antimalarial activity against chloroquine-resistant Plasmodium falciparum K1 infected in human type A+ erythrocytes after 48 hrs by [3H]-hypoxanthine incorporation assay
Plasmodium falciparum [10] = assay: Antimalarial activity against chloroquine-sensitive Plasmodium falciparum Ro73 infected in human type A+ erythrocytes after 48 hrs by [3H]-hypoxanthine incorporation assay
Plasmodium falciparum [11] = assay: Antimalarial activity against chloroquine-sensitive Plasmodium falciparum RF MEF3 infected in human type A+ erythrocytes after 48 hrs by [3H]-hypoxanthine incorporation assay
Plasmodium falciparum [12] = assay: Antimalarial activity against chloroquine-sensitive Plasmodium falciparum FCH-5-C2 infected in human type A+ erythrocytes after 48 hrs by [3H]-hypoxanthine incorporation assay
Plasmodium falciparum [13] = assay: Antimalarial activity against chloroquine-resistant Plasmodium falciparum RFCR-3 infected in human type A+ erythrocytes after 48 hrs by [3H]-hypoxanthine incorporation assay
Plasmodium falciparum [14] = assay: Antimalarial activity against chloroquine-resistant Plasmodium falciparum T9/94 infected in human type A+ erythrocytes after 48 hrs by [3H]-hypoxanthine incorporation assay
Plasmodium falciparum [15] = assay: Antimalarial activity against chloroquine-resistant Plasmodium falciparum W2MEF infected in human type A+ erythrocytes after 48 hrs by [3H]-hypoxanthine incorporation assay
Plasmodium falciparum [16] = assay: Antimalarial activity against chloroquine-sensitive Plasmodium falciparum HB3 infected in human type A+ erythrocytes after 48 hrs by [3H]-hypoxanthine incorporation assay

Compound: Fc1ccc(C(/C=C/C=C(\c2ccc(F)cc2)N2CCN(c3ccnc4cc(Cl)ccc34)CC2)=[N+]2CCN(c3ccnc4cc(Cl)ccc34)CC2)cc1
- IC50 (Plasmodium falciparum [1]): 444 nM
- IC50 (Plasmodium falciparum [2]): 468 nM
- IC50 (Plasmodium falciparum [3]): 350 nM

Compound: Clc1ccc2c(N[C@@H]3CCCC[C@H]3Nc3ccnc4cc(Cl)ccc34)ccnc2c1
- IC50 (Plasmodium falciparum [4]): 4 to 13 nM
- IC50 (Plasmodium falciparum [5]): 10 nM
- IC50 (Plasmodium falciparum [6]): 4 to 13 nM
- IC50 (Plasmodium falciparum [7]): 4 to 13 nM
- IC50 (Plasmodium falciparum [8]): 6 nM
- IC50 (Plasmodium falciparum [9]): 13 nM
- IC50 (Plasmodium falciparum [10]): 4 to 13 nM
- IC50 (Plasmodium falciparum [11]): 4 to 13 nM
- IC50 (Plasmodium falciparum [12]): 4 to 13 nM
- IC50 (Plasmodium falciparum [13]): 4 to 13 nM
- IC50 (Plasmodium falciparum [14]): 4 to 13 nM
- IC50 (Plasmodium falciparum [15]): 4 to 13 nM
- IC50 (Plasmodium falciparum [16]): 4 nM
